Results: US11415579B2, “Assay for measuring a rate of reaction between a target and a ligand candidate” (Imperial College Innovations Ltd., priority 2016, dated 2022)

Key:
[1] = Kinetic thiol consumption assay with model thiol glutathione; type: physicochemical; parameters: Rate constant with glutathione (k(GSH)): unit not given here; conditions: for Rate constant with glutathione (k(GSH)): 500 μM ligand, 5 μM thiol, phosphate buffer pH 8; for Rate constant with Glutathione: Protein: Glutathione, cysteine position NA, in h-1
Procedure, shortened: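 GSH 5 μM, degassed phosphate buffer pH 8, TCEP beads 2% v/v; acrylamide added; RT, 1 h; fluorescence ex/em 380/470 nm; normalized to DMSO/thiol control; k from first-order exponential decay fit.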

[2] = target: T1, human cyclin-dependent kinase 2 (Cdk2) (Homo sapiens, UniProt P24941); test: Kinetic thiol consumption assay with wild type Cdk2 (C177); type: binding; parameters: key to Rate enhancement, Cdk2 WT: k(Cdk2) divided by k(model thiol); Rate constant with Cdk2 (k(Cdk2)): unit not given here; conditions: for Rate constant with Cdk2 (k(Cdk2)): 500 μM ligand, 5 μM thiol, phosphate buffer pH 8; for Rate enhancement, Cdk2 WT: no additional mutations; for Rate constant with Cdk2 WT: Protein: Cdk2, cysteine position WT, in h^-1; for k(Cdk2)/k(Cdk2_mut) rate enhancement: model thiol Cdk2[C177A, F80C, K278C]; for k(Cdk2)/k(GSH) rate enhancement: model thiol glutathione
T1 construct: poly-histidine; made in house; host or cells: E. coli
Procedure, shortened: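 His-tagged human Cdk2 from E. coli (sole surface cysteine C177) or a model thiol, each 5 μM in degassed phosphate buffer pH 8 with immobilized TCEP, reacted with acrylamides at room temperature. Fluorescence (ex 380/em 470) normalized to DMSO/thiol control over time; first-order rate constants, Cdk2 rate divided by model-thiol rate.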

Cdk2[C177A, F80C, K278C] = target: T2, Cdk2[C177A, F80C, K278C] (Homo sapiens, UniProt P24941, C177A/F80C/K278C); test: Kinetic thiol consumption assay with mutant Cdk2 as model thiol; type: binding; parameters: unit not given here; conditions: 500 μM ligand, 5 μM thiol, phosphate buffer pH 8
T2 construct: poly-histidine; made in house; host or cells: E. coli
Procedure, shortened: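 Model thiol: His-tagged human Cdk2 C177A/F80C/K278C (two engineered surface cysteines), E. coli-expressed, 5 μM in degassed phosphate buffer pH 8 with immobilized TCEP beads (2% v/v). Fluorescence (ex/em 380/470 nm) followed over time at room temperature, normalized to DMSO/thiol control. First-order decay fit gives rate constants.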

Cdk2(C177A, F80C) = target: T3, Cdk2(C177A, F80C) (Homo sapiens, UniProt P24941, C177A/F80C); test: Kinetic thiol consumption assay with Cdk2 mutant F80C, incl. kobs versus concentration (Kd, k2); type: binding; parameters: key to Rate enhancement, Cdk2 F80C: Cdk2 rate constant divided by model-thiol rate constant; conditions: additional mutation C177A; for Rate constant with Cdk2 F80C: Protein: Cdk2, cysteine position F80C, in h^-1
T3 construct: poly-histidine; made in house; host or cells: E. coli
Procedure, shortened: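 His-tagged Cdk2(C177A/F80C) from E. coli or model thiol, 5 μM in degassed phosphate buffer pH 8 with TCEP beads, reacted with acrylamide ligands; fluorescence (ex/em 380/470 nm) normalized to DMSO control and fitted to first-order decay for kobs. Kd and k2 obtained from hyperbolic fit of kobs versus ligand concentration.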

Cdk2(H71C) (C177A) = target: T4, Cdk2(H71C) (C177A) (Homo sapiens, UniProt P24941, C177A/H71C); test: Kinetic thiol consumption assay with Cdk2 mutant H71C; type: binding; parameters: key to Rate enhancement, Cdk2 H71C: rate constant with Cdk2 ÷ rate constant with model thiol (fold); conditions: additional mutation C177A; for Rate constant with Cdk2 H71C: Protein: Cdk2, cysteine position H71C, in h^-1
T4 construct: poly-histidine; made in house; host or cells: E. coli
Procedure, shortened: (§1)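 5 μM thiol, degassed phosphate pH 8, 2% v/v immobilized TCEP beads; 1 h RT; fluorescence ex 380/em 470 nm; normalized vs DMSO/thiol-only; first-order exponential decay fit → rate constant; Cdk2 k / model-thiol k = rate enhancement per acrylamide.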

Cdk2(S276C) (C177A) = target: T5, Cdk2(S276C) (C177A) (Homo sapiens, UniProt P24941, C177A/S276C); test: Kinetic thiol consumption assay with Cdk2 mutant S276C; type: binding; parameters: key to Rate enhancement, Cdk2 S276C: rate constant with Cdk2 ÷ rate constant with model thiol (fold); conditions: additional mutation C177A; for Rate constant with Cdk2 S276C: Protein: Cdk2, cysteine position S276C, in h^-1
T5 construct: poly-histidine; made in house; host or cells: E. coli
Procedure, shortened: as §1

Cdk2(N272C) (C177A) = target: T6, Cdk2(N272C) (C177A) (Homo sapiens, UniProt P24941, C177A/N272C); test: Kinetic thiol consumption assay with Cdk2 mutant N272C; type: binding; parameters: key to Rate enhancement, Cdk2 N272: rate constant with Cdk2 ÷ rate constant with model thiol (fold); conditions: for Rate enhancement, Cdk2 N272: Cdk2 N272, additional mutation C177A; for Rate constant with Cdk2 N272C: Protein: Cdk2, cysteine position N272C, additional mutation C177A, in h^-1
T6 construct: poly-histidine; made in house; host or cells: E. coli
Procedure, shortened: as §1

Cdk2(T182C) (C177A) = target: T7, Cdk2(T182C) (C177A) (Homo sapiens, UniProt P24941, C177A/T182C); test: Kinetic thiol consumption assay with Cdk2 mutant T182C; type: binding; parameters: key to Rate enhancement, Cdk2 T182C: rate constant with Cdk2 ÷ rate constant with model thiol (fold); conditions: additional mutation C177A; for Rate constant with Cdk2 T182C: Protein: Cdk2, cysteine position T182C, in h^-1
T7 construct: poly-histidine; made in house; host or cells: E. coli
Procedure, shortened: as §1

Cdk2(R122C) (C177A) = target: T8, Cdk2(R122C) (C177A) (Homo sapiens, UniProt P24941, C177A/R122C); test: Kinetic thiol consumption assay with Cdk2 mutant R122C; type: binding; parameters: key to Rate enhancement, Cdk2 R122C: rate constant with Cdk2 ÷ rate constant with model thiol (fold); conditions: additional mutation C177A; for Rate constant with Cdk2 R122C: Protein: Cdk2, cysteine position R122C, in h-1
T8 construct: poly-histidine; made in house; host or cells: E. coli
Procedure, shortened: as §1

Cdk2(S181C) (C177A) = target: T9, Cdk2(S181C) (C177A) (Homo sapiens, UniProt P24941, C177A/S181C); test: Kinetic thiol consumption assay with Cdk2 mutant S181C; type: binding; parameters: key to Rate enhancement, Cdk2 S181C: rate constant with Cdk2 ÷ rate constant with model thiol (fold); conditions: additional mutation C177A; for Rate constant with Cdk2 S181C: Protein: Cdk2, cysteine position S181C, in h^-1
T9 construct: poly-histidine; made in house; host or cells: E. coli
Procedure, shortened: as §1

SMILES	Rate constant with Cdk2 (k(Cdk2)) [2]	Rate enhancement, Cdk2 WT [2]	Rate constant with Cdk2 WT [2]	k(Cdk2)/k(Cdk2_mut) rate enhancement [2]	k(Cdk2)/k(GSH) rate enhancement [2]	Rate constant with Cdk2[C177A, F80C, K278C] (k(Cdk2_mut)) (Cdk2[C177A, F80C, K278C])	Rate enhancement, Cdk2 F80C (Cdk2(C177A, F80C))	Rate constant with Cdk2 F80C (Cdk2(C177A, F80C))	Rate enhancement, Cdk2 H71C (Cdk2(H71C) (C177A))	Rate enhancement, Cdk2 S276C (Cdk2(S276C) (C177A))	Rate constant with Cdk2 S276C (Cdk2(S276C) (C177A))	Rate enhancement, Cdk2 N272 (Cdk2(N272C) (C177A))	Rate constant with Cdk2 N272C (Cdk2(N272C) (C177A))	Rate enhancement, Cdk2 T182C (Cdk2(T182C) (C177A))	Rate constant with Cdk2 T182C (Cdk2(T182C) (C177A))	Rate enhancement, Cdk2 R122C (Cdk2(R122C) (C177A))	Rate enhancement, Cdk2 S181C (Cdk2(S181C) (C177A))	Rate constant with Cdk2 S181C (Cdk2(S181C) (C177A))	Rate constant with glutathione (k(GSH)) [1]	Rate constant with Glutathione [1]	further results
C=CC(=O)NC1CCN(Cc2ccccc2)CC1 [BN-78]	0.00116	0.1591	0.001157	0.5905	0.2873	0.00196	0.2437	0.001773	0	0.1622	0.00118	0.5049	0.003673	0.1316	0.0009576	0.2392	0.09002	0.0006548	0.00403	0.007274	Rate constant with Cdk2 R122C (Cdk2(R122C) (C177A)): 0.00174
C=CC(=O)Nc1cccc(C(F)(F)F)c1 [BN-80]	0.0419	1.405	0.0419	0.3263	1.404	0.1284	1.308	0.03902	0.1247	0.6024	0.01797	0.2072	0.006181	4.026	0.1201	0.5528	0.4626	0.0138	0.02984	0.02983	Rate constant with Cdk2 H71C (Cdk2(H71C) (C177A)): 0.003721; Rate constant with Cdk2 R122C (Cdk2(R122C) (C177A)): 0.01649
C=CC(=O)NCCN1CCOCC1 [BN-346]	0.00428	1.185	0.005514	2.921	1.429	0.00146	0.189	0.0008792	0.09555	0.2004	0.0009323	0.4286	0.001994	0.1853	0.000862	0	0.233	0.001084	0.00299	0.004652	Rate constant with Cdk2 H71C (Cdk2(H71C) (C177A)): 0.0004445
C=CC(=O)NCc1ccccc1 [CA-009]	0.00446	2.404	0.01679	1.108		0.00402	0.5029	0.003513	0.2836	0.8186	0.005718	1.318	0.009206	21.57	0.1507	0.5794	0.4707	0.003288		0.006985	Rate constant with Cdk2 H71C (Cdk2(H71C) (C177A)): 0.001981; Rate constant with Cdk2 R122C (Cdk2(R122C) (C177A)): 0.004047

Second part, led by results:

Rate constant with Cdk2 (k(Cdk2)) [2]	Rate enhancement, Cdk2 WT [2]	Rate constant with Cdk2 WT [2]	k(Cdk2)/k(Cdk2_mut) rate enhancement [2]	k(Cdk2)/k(GSH) rate enhancement [2]	Rate constant with Cdk2[C177A, F80C, K278C] (k(Cdk2_mut)) (Cdk2[C177A, F80C, K278C])	Rate enhancement, Cdk2 F80C (Cdk2(C177A, F80C))	Rate constant with Cdk2 F80C (Cdk2(C177A, F80C))	Rate enhancement, Cdk2 H71C (Cdk2(H71C) (C177A))	Rate enhancement, Cdk2 S276C (Cdk2(S276C) (C177A))	Rate constant with Cdk2 S276C (Cdk2(S276C) (C177A))	Rate enhancement, Cdk2 N272 (Cdk2(N272C) (C177A))	Rate constant with Cdk2 N272C (Cdk2(N272C) (C177A))	Rate enhancement, Cdk2 T182C (Cdk2(T182C) (C177A))	Rate constant with Cdk2 T182C (Cdk2(T182C) (C177A))	Rate enhancement, Cdk2 R122C (Cdk2(R122C) (C177A))	Rate enhancement, Cdk2 S181C (Cdk2(S181C) (C177A))	Rate constant with Cdk2 S181C (Cdk2(S181C) (C177A))	SMILES	Rate constant with glutathione (k(GSH)) [1]	Rate constant with Glutathione [1]	further results
0.00676	3.777	0.01619	0.356	2.66	0.01899	18.66	0.07999	1.033	1.648	0.007064	2.921	0.01252	59.66	0.2557	0.4256	0.8854	0.003795	C=CC(=O)NCCNC(=O)c1ccccc1 [CA216]	0.00254	0.004286	Rate constant with Cdk2 H71C (Cdk2(H71C) (C177A)): 0.004427; Rate constant with Cdk2 R122C (Cdk2(R122C) (C177A)): 0.001824
0.09635	1.855	0.09635	0.2318	1.877	0.4157	3.888	0.202	0.317	0.9852	0.05118	0.4189	0.02176	5.8	0.3013	0.6897	2.504	0.1301	C=CC(=O)Nc1cccc2ncccc12 [CA-012]	0.05132	0.05195	Rate constant with Cdk2 H71C (Cdk2(H71C) (C177A)): 0.01647; Rate constant with Cdk2 R122C (Cdk2(R122C) (C177A)): 0.03583
0.1733	2.835	0.1733	0.5523	2.895	0.3138	1.175	0.07185	1.035	1.04	0.06356	0.7612	0.04653	5.246	0.3207	0.3475	0.5066	0.03097	C=CC(=O)Nc1ccc(C(=O)OC)cc1 [CA-028]	0.05986	0.06113	Rate constant with Cdk2 H71C (Cdk2(H71C) (C177A)): 0.06327; Rate constant with Cdk2 R122C (Cdk2(R122C) (C177A)): 0.02124
